According to patent publication US7326700B2, “Cyclohexenyl phenyl carboxamides tocolytic oxytocin receptor antagonists” (Wyeth, priority 2001, dated 2008):
pIC50: −log10 of the molar value. Structures can show the parent of a compound that is named as a salt. Blank lines part the entries; values can stand above or below the compound they belong to.

Molecular target: T1, human oxytocin receptor (Homo sapiens, UniProt P30559)
T1 construct: host or cells: CHO cells, stably transfected (pcDNA3.1 vector)
T1 sequence (P30559 1-389): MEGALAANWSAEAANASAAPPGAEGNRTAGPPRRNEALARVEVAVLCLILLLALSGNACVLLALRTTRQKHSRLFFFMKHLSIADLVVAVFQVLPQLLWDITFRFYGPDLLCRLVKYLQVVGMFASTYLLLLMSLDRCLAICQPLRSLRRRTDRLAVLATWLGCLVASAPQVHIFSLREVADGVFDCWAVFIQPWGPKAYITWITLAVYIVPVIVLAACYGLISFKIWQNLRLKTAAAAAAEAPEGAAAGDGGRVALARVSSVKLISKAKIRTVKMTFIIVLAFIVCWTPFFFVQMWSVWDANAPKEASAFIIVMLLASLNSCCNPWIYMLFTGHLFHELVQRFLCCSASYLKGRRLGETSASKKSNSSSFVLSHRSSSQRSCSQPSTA
Assay: Oxytocin binding in CHO cell membranes expressing human oxytocin receptors ([3H]oxytocin radioligand binding)
Details: for OT % inhibition @ 100 nM / inhibition at 0.1 µM: 100 nM; for inhibition at 0.1 µM: read-out: OT % inhibition @ 100 nM; for pIC50: value in parentheses, read-out: OT (IC50)
From the text: Chinese Hamster Ovary (CHO) cells stably transfected with the human oxytocin recptor (cf. Tanizawa et al., U.S. Pat. No. 5,466,584 (1995) to Rohto Pharmaceutical Co. Ltd., Osaka, Japan) were obtained from M. Thibonnier, Case Western Reserve University School of Medicine, Cleveland, Ohio.
CHO cells transfected with the human oxytocin receptors obtained from M. Thibonnier (pcDNA3.1 vector) are allowed to grow to confluency (approx. >90%) in T-150 flasks under sterile conditions, in a cell culture medium consisting of F-12 Nutrient Mixture (HAM) with L-glutamine (Gibco Cat. #11765-054) containing 15 mM HEPES (Gibco Cat. #15630-080), 1% antibiotic/antimycotic (add 5 mL 1 00×, Gibco Cat. #15240-062 per 500 mL F-12), 400 μg/mL of Geneticin (add 4 mL of 50 mg/mL per 500 mL F-12) and 10% Fetal Bovine Serum (Qualified, heat inactivated, Gibco Cat. #16140-063). The medium is removed by aspiration and the cells are washed with 10 mL of Hank's Balanced Salt solution (Gibco Cat. #14175-095). The salt solution is removed by aspiration and the cells trypsinized with 5 mL of trypsin-EDTA (0.05% trypsin, 0.53 mM EDTA-4Na, Gibco Cat. #25300-070) for 1 min The trypsin is removed by aspiration and the cells dislodged by tapping. Cell Culture medium (e.g. 30 mL for 1:30 split) is immediately added and mixed well to inactivate trypsin. 1 mL of detached cells is added to new culture flasks containing fresh Cell Culture medium (e.g. into 25 mL per T-150 flask), and mixed gently. The cells are incubated at 37° C. in 5% CO2. The medium is changed at 3 to 4 days interval (or as appropriate). The cells grow to confluency (approx. >75%-95%) within 7-8 days. All steps are done under sterile conditions.
The cells are washed twice gently with Hank's Balanced Salt solution (eg, use 10 mL per T-150 flask). The excess solution is removed and the cells bathed for 15-30 min. in an enzyme-free Cell Dissociation Buffer (eg, use 8 mL Hank's Based, Gibco Cat. #13150-016 per T-150 flask) until cells are loosened. The contents are transferred to centrifuge tubes (50 mL size) kept in ice bath. All subsequent steps are done at 4° C. The tubes are centrifuged at 300×g for 15 min (1380 rpm on SORVAL, Model RT6000D, using rotor for 50 mL tubes). The supernatant is discarded and the cells suspended in homogenizing buffer (10 mM Tris-HCl containing 0.25 M sucrose and 1 mM EDTA, pH 7.4) ensuring that the volume of the buffer is about ten times the volume of the cell pellet. The cells are pooled into a centrifuge tube (50 mL) and homogenized with a Polytron at setting 6 for 10 sec. The homogenate is transferred into a Potter-Elvjehm homogenizer and homogenized with 3 strokes. The homogenate is centrifuged at 1500×g for 10 min at 4° C. (3100 rpm using SORVAL, model RT6000D, using rotor for 50 mL tubes). The pellet is discarded. The supernatant is centrifuged at 100,000×g for 60 min. at 4° C. (Beckman L8-80M ultracentrifuge; spin at 37,500 rpm with rotor type 70 Ti for 50 mL tubes; 38,000 rpm with type 80 Ti for 15 mL tubes; or 35,800 rpm with rotor type 45Ti). The supernantant is discarded and the pellet suspended in 3 to 4 mL of Tris buffer (50 mM TRIS-HCl, pH 7.4). The protein content is estimated by the Bradford or Lowry method. The volume of the membrane suspension is adjusted with the membrane buffer (50 mM Tris-HCl containing 0.1% BSA and 0.1 mM PMSF) to give 3.0 mg/mL (or as appropriate) of protein. The membranes are aliquoted and stored at −70° C.
In wells of a 96-well format microtiter plate, is added 90, 110 or 130 μL (to make up a final volume of 200 μL) of assay buffer containing 50 mM of Tris-HCl (pH 7.4), […], 1 mg % aprotinin, 1 mg % leupeptin, 2 mg % 1,10-phenanthroline, 10 mg % trypsin inhibitor, and 0.1 mM PMSF. The inhibitors are added on the day of the experiment. The components are mixed at room temperature, and then kept in ice bath following adjustment of the pH to 7.4. […]

OT % inhibition @ 100 nM: 68%
Compound: C=CCN1CCN(C(=O)c2ccc3n2Cc2ccccc2N(C(=O)c2ccc(C4=CCCCC4)c(C)c2)C3)CC1 [Example 24, (4-Allyl-1-piperazinyl){10-[4-(1-cyclohex-1-en-1-yl)-3-methylbenzoyl]-10,11-dihydro-5H-pyrrolo[2,1-c][1,4]benzodiazepin-3-yl}methanone]

OT % inhibition @ 100 nM: 86%
Compound: Cc1cc(C(=O)N2Cc3ccc(C(=O)N4CCC(N5CCCCC5)CC4)n3Cc3ccccc32)ccc1C1=CCCCC1 [Example 17, {10-[4-(1-Cyclohex-1-en-1-yl)-3-methylbenzoyl]-10,11-dihydro-5H-pyrrolo[2,1-c][1,4]benzodiazepin-3-yl}[4-(1-piperidinyl)-1-piperidinyl]methanone]

inhibition at 0.1 µM: 100%
Compound: COc1cc(C2=CCCCC2)c(Cl)cc1C(=O)N1Cc2ccc(C(=O)N(C)CCCN(C)C)n2Cc2ccccc21 [Example 2, 10-(5-Chloro-4-cyclohex-1-en-1-yl-2-methoxybenzoyl)-N-[3-(dimethylamino)propyl]-N-methyl-10,11-dihydro-5H-pyrrolo[2,1-c][1,4]benzodiazepine-3-carboxamide]

OT % inhibition @ 100 nM: 99%
Compound: Cc1cc(C(=O)N2Cc3ccc(C(=O)N(C)CCCN(C)C)n3Cc3ccccc32)ccc1C1=CCCCC1 [Example 16, 10-[4-(1-Cyclohex-1-en-1-yl)-3-methylbenzoyl]-N-[3-(dimethylamino)propyl]-N-methyl-10,11-dihydro-5H-pyrrolo[2,1-c][1 ,4]benzodiazepine-3-carboxamide]

pIC50: 8.13
Compound: Cc1cc(C(=O)N2Cc3ccc(C(=O)N4CCN(C)CC4)n3Cc3ccccc32)ccc1C1=CCCCC1 [Example 4, [10-(4-Cyclohex-1-en-1-yl-3-methyl-benzoyl)-10,11-dihydro-5H-pyrrolo[2,1-c][1,4]benzodiazepin-3-yl]-(4-methyl-piperazin-1-yl)-methanone]

pIC50: 7.60
Compound: Cc1cc(C(=O)N2Cc3ccc(C(=O)N4CCN(C)CC4)n3Cc3ccccc32)ccc1C1=CCCc2ccccc21 [Example 6, {10-[4-(3,4-Dihydro-naphthalen-1-yl)-3-methyl-benzoyl]-10,11-dihydro-5H-benzo[e]pyrrolo[1,2-a][1,4]diazepin-3-yl}-(4-methyl-piperazin-1-yl)-methanone]

OT % inhibition @ 100 nM: 82%
Compound: Cc1cc(C(=O)N2Cc3ccc(C(=O)N4CCC(N5CCCC5)CC4)n3Cc3ccccc32)ccc1C1=CCCCC1 [Example 19, {10-[4-(1-Cyclohex-1-en-1-yl)-3-methylbenzoyl]-10,11-dihydro-5H-pyrrolo[2,1c][1,4]benzodiazepin-3-yl}[4-(1-pyrrolidinyl)-1-piperidinyl]methanone]

pIC50: 7.49
Compound: {10-[4-(1-Cyclohexen-1-yl)-3-methylbenzoyl]-10,11-dihydro-5H-pyrrolo[2,1-c][1,4]benzodiazepin-3-yl}(4-methyl-piperazin-1-yl)methanone [Example 12]

OT % inhibition @ 100 nM: 57%
Compound: Cc1cc(C(=O)N2Cc3ccc(C(=O)NCCC4CCCN4C)n3Cc3ccccc32)ccc1C1=CCCCC1 (centres unmarked) [Example 21, 10-[4-(1-Cyclohex-1-en-1-yl)-3-methylbenzoyl]-N-[2-(1-methyl-2-pyrrolidinyl)ethyl]-10,11-dihydro-5H-pyrrolo[2,1-c][1,4]benzodiazepine-3-carboxamide]

pIC50: 8.73
Compound: COc1cc(C2=CCCCC2)c(Cl)cc1C(=O)N1Cc2ccc(C(=O)N3CCC[C@H]3CN3CCCC3)n2Cc2ccccc21 [Example 1, 4-Chloro-5-cyclohex-1-en-1-yl-2-[(3-{[(2S)-2-(pyrrolidin-1-ylmethyl)pyrrolidin-1-yl]carbonyl}-5H-pyrrolo [2,1-c][1,4]benzodiazepin-10(11H)-yl)carbonyl]phenyl methyl ether]

inhibition at 0.1 µM: 94%
Compound: Cc1cc(C(=O)N2Cc3ccc(C(=O)N4CCN(CCCN(C)C)CC4)n3Cc3ccccc32)ccc1C1=CCCCC1 [Example 5, [10-(4-Cyclohex-1-en-1-yl-3-methyl-benzoyl)-10,11-dihydro-5H-pyrrolo[2,1-c][1,4]benzodiazepin-3-yl]-[4-(3-dimethylamino-propyl)-piperazin-1-yl]-methanone]

OT % inhibition @ 100 nM: 57%
Compound: Cc1cc(C(=O)N2Cc3ccc(C(=O)NCCCN(C)C)n3Cc3ccccc32)ccc1C1=CCCCC1 [Example 14, 10-[4-(1-Cyclohex-1-en-1-yl)-3-methylbenzoyl]-N-[3-(dimethylamino)propyl]-10,11-dihydro-5H-pyrrolo[2,1-c][1,4]benzodiazepine-3-carboxamide]

OT % inhibition @ 100 nM: 79%
Compound: Cc1cc(C(=O)N2Cc3ccc(C(=O)N4CCN(CCN5CCOCC5)CC4)n3Cc3ccccc32)ccc1C1=CCCCC1 [Example 23, {10-[4-(1-Cyclohex-1-en-1-yl)-3-methylbenzoyl]-10,11-dihydro-5H-pyrrolo[2,1-c][1,4]benzodiazepin-3-yl}{4-[2-(4-morpholinyl)ethyl]-1-piperazinyl}methanone]

pIC50: 8.04
Compound: COc1cc(C2=CCCCC2)c(Cl)cc1C(=O)N1Cc2ccc(C(=O)N(C)CCCN(C)C)n2Cc2ccccc21 [Example 3, 10-(5-Chloro-4-cyclohex-1-en-1-yl-2-methoxybenzoyl)-N-[3-(dimethylamino)propyl]-N-methyl-10,11-dihydro-5H-pyrrolo[2,1-c][1,4]benzodiazepine-3-carboxamide citric acid salt]

inhibition at 0.1 µM: 91%
Compound: Cc1cc(C(=O)N2Cc3ccc(C(=O)N4CCN(CCCN(C)C)CC4)n3Cc3ccccc32)ccc1C1=CCCc2ccccc21 [Example 7, {10-[4-(3,4-Dihydro-naphthalen-1-yl)-3-methyl-benzoyl]-10,11-dihydro-5H-pyrrolo[2,1-c][1,4]benzodiazepin-3-yl}-[4-(3-dimethylamino-propyl)-piperazin-1-yl]-methanone]

OT % inhibition @ 100 nM: 99%
Compound: Cc1cc(C(=O)N2Cc3ccc(C(=O)N(C)CCN(C)C)n3Cc3ccccc32)ccc1C1=CCCCC1 [Example 15, 10-[4-(1-Cyclohex-1-en-1-yl)-3-methylbenzoyl]-N-[2-(dimethylamino)ethyl]-N-methyl-10,11-dihydro-5H-pyrrolo[2,1-c][1,4]benzodiazepine-3-carboxamide]

inhibition at 0.1 µM: 86%
Compound: CC1=C(c2ccc(C(=O)N3Cc4ccc(C(=O)N5CCN(C)CC5)n4Cc4ccccc43)cc2C)CCC[C@H]1O [Example 11, [4-((3R)-3-Hydroxy-2-methyl-cyclohex-1-en-1-yl)-3-methyl-phenyl]-[3-(4-methyl-piperazine-1-carbonyl)-10,11-dihydro-5H-pyrrolo [2,1-c][1,4]benzodiazepin-10-yl]-methanone]
